# How the values were obtained:
# [1] = test system: DNA; design: method as in not given; details: order of magnitude reported for classical intercalators; ref not given; cited from earlier work
# [2] = test system: MCF-10A cells; assay: MTT cell proliferation assay; format: cell-based, human; details: 24 h of incubation, read-out: IC50 ±SEM MCF-10A
# Method: (§1) MDA-MB-231 human breast tumor cells and MCF7 human breast tumor cells, obtained from Rio de Janeiro Cell Bank, were maintained at 37°C in 5% CO2 in DMEM medium containing fetal bovine serum (FBS) 10% (Vitrocell). MCF-10A, a non-tumor breast cell line, obtained from Rio de Janeiro Cell Bank, was cultivated in DMEM/F12 medium containing horse serum (HS) 5%, EGF (0.02 mg/mL); hydrocortisone (0.05 mg/mL); cholera toxin (0.001 mg/mL) and insulin (0.01 mg/mL). Both media contained penicillin (100 UI/mL), streptomycin ([…]) and L-glutamine (2 mM).
# (§2) Proliferation assays were performed as described earlier. Briefly, cells lines were prepared in a concentration of 1x10^4 cells/100 μL, in complete medium (with 10% FBS), and plated on sterile 96-well plates for 24 h. The culture medium was removed from the wells and a new one, supplemented with 10% FBS and containing different concentrations of (1) [Ru(SO4)(dppb)(bipy)] (2) [Ru(CO3)(dppb)(bipy)], (3), [Ru(C2O4)(dppb)(bipy)], or (4) [Ru(CH3CO2)(dppb)(bipy)]PF6, was added to the wells. Cells were incubated for 24 h under the same conditions as described above. Cell proliferation assay was performed in comparison with untreated control. After incubation, the culture medium of each well was removed and a solution containing MTT (1 mg/mL) was added (100 μL/well). The plates were then kept at 37°C for 4 h and the formed crystals were dissolved in DMSO. The absorbance was read on an ELISA plate reader at a wavelength of 540 nm. […] The selectivity index (SI) was calculated as the ratio IC50 (MCF-10A) / IC50 (MDA-MB-231).
# (§3) Each experiment was repeated three times in triplicate and a standard error mean was calculated. Shapiro-Wilk’s test was used to verify data normality. As normal distribution was present, the results were compared statistically with a one-way or two-way analysis of variance (ANOVA). […] The data were analysed and IC50 calculations were made using Hill’s equation in the GraphPad Prism software (version 6.05).
# [3] = test system: MCF-7 cells; assay: MTT cell proliferation assay; format: cell-based, human; details: 24 h of incubation, read-out: IC50 ±SEM MCF-7
# Method: as §1, §2, §3
# [4] = test system: MDA-MB-231 cells; assay: MTT cell proliferation assay; format: cell-based, human; details: 24 h of incubation, read-out: IC50 ±SEM MDA-MB-231
# Method: as §1, §2, §3
# [5] = Water-octanol partition coefficient (stir-flask method); format: physicochemical; details: 24 h shaking, 37°C
# Method: The water-octanol partition coefficients were determined by use of the stir-flask method. The complex was added in a mixture with equal volumes of water and octanol shaking by 24 h at 100 rpm and 37°C, samples were centrifuged for 5min at 300rpm, the organic and aqueous phases were separated. The concentration of drug in each phase was measured spectrophotometrically in order to determine values of P = [drug] (in octanol)/[drug] (in water).
# [6] = target: HSA (Homo sapiens, UniProt P02768); assay: HSA tryptophan fluorescence quenching; format: binding; details: for ΔS (HSA): complex-HSA system
# Method: For fluorescence measurements, the HSA concentration in Tris–HCl buffer was kept constant in all the samples, while the complex concentration was increased from 0.50 to 50 μM, and quenching of the emission intensity of the HSA tryptophan residues at 305 nm (excitation wavelength 270 nm) was monitored at different temperatures (25°C and 37°C). The experiments were carried out in triplicate and analysed using the classical Stern-Volmer equation. The binding constant (Kb) and number of complexes bound to HSA (n) were determined by plotting the double log graph of the fluorescence data using: log [(F0-F)/F] = log Kb + nlog[Q]. The thermodynamic parameter (ΔH) was calculated from equation: ln (K2/K1) = [(1/T1)-(1/T2)]ΔH/R, where K1 and K2 are the binding constants at temperatures T1 and T2, and R is the gas constant. Furthermore, the change in free energy (ΔG) and entropy (ΔS) were calculated from the following equation: ΔG = -RT lnK = ΔH − TΔS.
# Human serum albumin (HSA) is the most abundant protein in the blood and cerebrospinal fluid and plays a fundamental role in the distribution of essential transition metal ions in the human body. Moreover, HSA is an important physiological transporter of the essential metal ions Cu^2+, and Zn^2+ in the bloodstream. […] The fluorescence spectrum is essentially that of tryptophan residue; contribution of tyrosine is relatively minor. In order to determine the protein binding affinity of complexes (1–4), tryptophan emission quenching experiments were carried out by adding the complexes in increasing concentration (0–50 μM) to HSA at two different temperatures and following the decrease in fluorescence intensities (Fig 6D). The results point out a good linearity at the two different temperatures. The binding constants, KSV, calculated from the Stern-Volmer equation are presented on Table 2.
# [7] = test system: MCF-10A cells; assay: Cell morphology (inverted microscope); format: cell-based, human; details: 24 h; for effect on cell morphology: 25 and 50 μM
# Method: (§4) Exponentially growing MDA-MB-231, MCF-7 or MCF-10A cells were harvested, counted and seeded (1x10^5 cells/mL) and plated on sterile 12-well plates for 24 h. Cells were allowed to grow at 37°C in 5% CO2 overnight and then, treated or not (control) with different concentrations of the complexes (1–4) for 2 and 24 h. Cell morphology was examined under an inverted microscope (Nikon, T5100) with amplification of 100×.
# (§5) In this work the cytotoxicity of the complexes was evaluated against the MDA-MB-231, MCF-7 and MCF-10A cells by morphology, clonogenic and MTT assays (Fig 2, Table 1). To investigate the effects on cell morphology, the complexes were incubated with cells at concentrations of 25 and 50 μM for 24 h.
# [8] = test system: MCF-7 cells; assay: Cell morphology (inverted microscope); format: cell-based, human; details: MCF-7, 25 and 50 μM, 24 h
# Method: as §4, §5
# [9] = test system: MDA-MB-231 cells; assay: Cell morphology (inverted microscope); format: cell-based, human; details: 24 h
# Method: as §4, §5
# [10] = test system: pBR322 plasmid DNA; assay: Agarose gel electrophoresis of plasmid DNA; format: binding; details: Ri 0.50, 18 h, 37°C
# Method: Ten microliters of pBR322 plasmid DNA in a Tris-HCl buffer were incubated at 37°C for 18 h with molar ratios between 0.12 and 0.5. After incubation, 5 μL of each sample was separated by electrophoresis in a 1% agarose gel for 45 min at 100V using a Tris borate–EDTA buffer (TBE) and stained with ethidium bromide ([…] ethidium bromide per 40 mL agarose gel mixture). Samples of DNA with DMSO were used as controls. The DNA bands were visualized as an image using a UV light transilluminator (ChemiDoc MP, BioRad Laboratories).
# The influence of the compounds on the tertiary structure of DNA was determined by their ability to modify the electrophoretic mobility of forms of pBR322 plasmid DNA (Fig 6C). Agarose gel electrophoresis was performed using pBR322 plasmid DNA in the absence and presence of the complexes. […] In Ri 0.12 and 0.25 complexes (1–3) show the corresponding open circular, linear and super coiled form. […] This means that the degree of super helicity of the DNA molecules has been altered, in the same way as that described previously for other coordination platinum(II) and palladium (II) compounds containing 7-azaindolyl ligand [36].
# Chain of HSA (P02768 25-609): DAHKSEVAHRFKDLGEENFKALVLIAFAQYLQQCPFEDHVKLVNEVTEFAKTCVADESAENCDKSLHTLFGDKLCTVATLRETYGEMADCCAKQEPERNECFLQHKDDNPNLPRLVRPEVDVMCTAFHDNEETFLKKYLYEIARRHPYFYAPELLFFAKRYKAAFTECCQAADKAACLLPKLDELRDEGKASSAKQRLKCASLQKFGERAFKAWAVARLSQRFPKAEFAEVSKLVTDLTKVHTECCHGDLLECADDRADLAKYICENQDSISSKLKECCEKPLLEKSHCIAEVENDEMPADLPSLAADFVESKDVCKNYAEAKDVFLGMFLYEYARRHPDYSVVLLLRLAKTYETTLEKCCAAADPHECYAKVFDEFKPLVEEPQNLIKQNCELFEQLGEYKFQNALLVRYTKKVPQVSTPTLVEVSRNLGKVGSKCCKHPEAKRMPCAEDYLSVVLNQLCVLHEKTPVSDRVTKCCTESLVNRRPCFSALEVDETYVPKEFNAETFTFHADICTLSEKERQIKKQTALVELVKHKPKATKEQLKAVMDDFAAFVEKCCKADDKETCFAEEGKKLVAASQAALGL
Molecule,DNA binding constant [1],IC50 [2],IC50 [3],IC50 [4],Log P [5],Kq (HSA) ([6]; T 298),Ksv (HSA) ([6]; T 298),"n (number of binding sites, HSA) ([6]; T 298)",Kq (HSA) ([6]; T 310),Ksv (HSA) ([6]; T 310),"n (number of binding sites, HSA) ([6]; T 310)",ΔS (HSA) [6],effect on cell morphology [7],effect on cell morphology [8],"effect on cell morphology ([9]; MDA-MB-231, 25 and 50 μM)","effect on cell morphology ([9]; MDA-MB-231, 50 μM)",electrophoretic mobility of super coiled pBR322 band [10],effect on cell morphology / cell density ([7]; 50 μM)
[Ru(phen)2(dppz)]^2+,10^6 to 10^7 M^-1,–,–,–,–,–,–,–,–,–,–,–,–,–,–,–,–,–
CC[n+]1c(-c2ccccc2)c2cc(N)ccc2c2ccc(N)cc21 [ethidium bromide],10^6 to 10^7 M^-1,–,–,–,–,–,–,–,–,–,–,–,–,–,–,–,–,–
"N.N.[Cl][Pt][Cl] [Cisplatin, reference compound]",–,29.4 ± 0.85 µM,79.18 ± 0.2 µM,2.43 ± 0.2 µM,–,–,–,–,–,–,–,–,–,–,–,–,–,–
"O=S(=O)([O-])[O-].[Ru+2].c1ccc(-c2ccccn2)nc1.c1ccc(P(CCCCP(c2ccccc2)c2ccccc2)c2ccccc2)cc1 [Complex (1), [Ru(SO4)(dppb)(bipy)]]",–,42.8 ± 5.02 µM,> 200 µM,> 200 µM,0.26 ± 0.06,5.26e+13 M⁻¹ s⁻¹,5.04 ± 0.09 x10^4 M^-1,1.10,4.65e+13 M⁻¹ s⁻¹,4.45 ± 0.18 x10^4 M^-1,1.06,72.70 J.mol^-1K,altered the morphology,did not alter the morphology,did not alter the morphology,–,–,–
[Ru(CO3)(dppb)(bipy)] [Complex (2)],–,31.5 ± 1.06 µM,> 200 µM,52.7 ± 0.62 µM,0.55 ± 0.02,2.935e+13 M⁻¹ s⁻¹,2.81 ± 0.12 x10^4 M^-1,1.00,3.425e+13 M⁻¹ s⁻¹,3.28 ± 0.14 x10^4 M^-1,0.98,85.80 J.mol^-1K,did not alter the morphology,did not alter the morphology,–,profoundly altered their morphology,increased the electrophoretic mobility,–
"O=C([O-])C(=O)[O-].[Ru+2].c1ccc(-c2ccccn2)nc1.c1ccc(P(CCCCP(c2ccccc2)c2ccccc2)c2ccccc2)cc1 [Complex (3), [Ru(C2O4)(dppb)(bipy)]]",–,42.2 ± 2.37 µM,> 200 µM,> 200 µM,0.06 ± 0.008,1.63e+13 M⁻¹ s⁻¹,1.56 ± 0.13 x10^4 M^-1,0.90,1.702e+13 M⁻¹ s⁻¹,1.63 ± 0.10 x10^4 M^-1,0.85,80.00 J.mol^-1K,–,did not alter the morphology,did not alter the morphology,–,–,reduced cell density
"[Cl-].[Cl-].[Ru+2].c1ccc(-c2ccccn2)nc1.c1ccc(P(CCCCP(c2ccccc2)c2ccccc2)c2ccccc2)cc1 [Precursor, cis-[RuCl2(dppb)(bipy)], reference compound]",–,81.9 ± 7.87 µM,> 200 µM,> 200 µM,-0.40 ± 0.01,–,–,–,–,–,–,–,–,–,–,–,–,–
